{"source": "patent US8268961B2", "about": "“Antibacterial peptides and analogues thereof” (Universita Degli Studi di Siena, priority 2004, dated 2012)", "key": {"[1]": {"test_system": "Escherichia coli ATCC 25922", "type": "cell-based", "settings": "Escherichia coli ATCC 25922, reference strain", "excerpt": "(§1) MIC is defined as the lowest concentration, in an antibiotic dilution range, that inhibits visible bacterial growth. The importance of MIC sensitivity test is based on the principle that in vitro sensitivity provides a predictive indication of the in vivo efficacy of the antibiotic therapy. Values are expressed as molar concentration and compared to MIC values obtained with commercially available antibiotics such as amikacin, ceftriaxone and levofloxacin (Table 3).\n(§2) Reference strains (Escherichia coli ATCC 25922, Pseudomonas aeruginosa ATCC 27853, Staphylococus aureus ATCC 25923 and Chryseobacterium meningosepticum CCUG 4310) and several recent clinical isolates (including multidrug-resistant ones) of various species (Table 2) were used for conventional susceptibility testing experiments. Minimum Inhibitory Concentration (MIC) was determined by a standard microdilution assay as recommended by the National Commitee for Clinical Laboratory Standards (NCCLS) using cation-supplemented Mueller-Hinton (MH) broth (Oxoid Ltd. Basingstoke, UK) and a bacterial inoculum of 5×10^4 CFU per well, in a final volume of 100 μl. Results were recorded by visual inspection after 24 h of incubation at 37° C."}, "[2]": {"test_system": "Escherichia coli W99FI0077", "type": "cell-based", "settings": "Escherichia coli W99FI0077, FQR ESCR (ESBL/SHV type)", "excerpt": "as §1, §2"}, "[3]": {"test_system": "Klebsiella pneumoniae W99FI0057", "type": "cell-based", "settings": "Klebsiella pneumoniae W99FI0057, ESCR (ESBL/SHV type)", "excerpt": "as §1, §2"}, "[4]": {"test_system": "Pseudomonas aeruginosa 885149", "type": "cell-based", "settings": "Pseudomonas aeruginosa 885149, FQR AGR ESCR CPR (MBL/IMP-13)", "excerpt": "as §1, §2"}, "[5]": {"test_system": "Pseudomonas aeruginosa 891", "type": "cell-based", "settings": "Pseudomonas aeruginosa 891, FQR AGR ESCR CPR (MBL/VIM-2)", "excerpt": "as §1, §2"}, "[6]": {"test_system": "Pseudomonas aeruginosa ATCC27853", "type": "cell-based", "settings": "Pseudomonas aeruginosa ATCC27853, reference strain", "excerpt": "as §1, §2"}, "[7]": {"test_system": "Staphylococcus aureus ATCC 25923", "type": "cell-based", "settings": "Staphylococcus aureus ATCC 25923, reference strain", "excerpt": "as §1, §2"}, "[8]": {"test_system": "Staphylococus aureus MIU-68A", "type": "cell-based, Staphylococcus aureus", "settings": "Staphylococus aureus MIU-68A, meticillin-susceptible", "excerpt": "as §1, §2"}, "E. coli strain TG1": {"test_system": "E. coli strain TG1", "test": "Test of antibacterial activity (colony growth inhibition) on E. coli strain TG1", "type": "cell-based", "settings": "E. coli TG1, colony counting vs control without peptide", "protocol": "The antimicrobic activity of the peptides in linear form (L1, L4, L5, L6) and in MAP form (M1, M4, M5, M6) was assayed on the TG1 strain of E. coli. The peptides were incubated at various concentrations (2-1-0.5-0.25-0.12 mg/ml) with cells of E. coli (OD600=0.2) for about 1 hour at 37° C. Subsequently, the cells were plated on agar at dilution such to allow counting of individual colonies. The antimicrobic activity of the synthesised peptide L 1 and M1 is shown FIG. 1 and is compared to a non correlated MAP peptide (MNC) used as negative control.\nIn one example, the tetrabranched MAP peptides with the amino acid sequence: QAKIRVRLSA [SEQ ID NO: 2], KIRVRLSA [SEQ ID NO: 3], QKKIRVRLSA [SEQ ID NO: 4] are used individually in a bacterial colony growth inhibition test. The test is conducted by incubating different concentrations of MAP peptides with E. coli (strain TG1) and plating bacterial cells on agar at a dilution such to allow for individual colonies counting. The following day, the number of colonies grown after treatment with the three MAP peptides is compared.\nAntimicrobic tests were conducted incubating for 75 min at 37° C., 25 μL of E. coli at the OD600 of 0.2 with 25 μl of MAP peptide dissolved in PBS at the various concentrations. The different incubations were further diluted 1:1000 in 2×TY medium and 100 μl were plated on solid 2×TY medium. The plates were left overnight at 30° C. and the individual grown colonies were counted and compared with a control, not treated with MAP peptide."}, "E. coli ATCC 25922": {"test_system": "E. coli ATCC 25922", "test": "Minimal bactericidal concentration (MBC)", "type": "cell-based", "protocol": "as §2\n(§3) The MBC was determined as recommended by the National Committee for Clinical Laboratory Standards (NCCLS) on strains of E. coli ATCC 25922 and P. aeruginosa ATCC 27853."}, "P. aeruginosa ATCC 27853": {"test_system": "P. aeruginosa ATCC 27853", "test": "Minimal bactericidal concentration (MBC)", "type": "cell-based", "protocol": "as §2, §3"}, "[9]": {"test_system": "murine macrophage cells J774 A.1", "test": "Cytotoxicity test by MTT", "type": "cell-based, mouse", "protocol": "The cytotoxicity of antibacterial MAP peptides was evaluated on different eukaryotic cell lines by a colorimetric assay (MTT). This assay measures the cells' ability to convert a soluble tetrazolium salt into an insoluble precipitate: formazan. The cytotoxicity of M1 was evaluated on murine macrophagic cells (J774 A.1), murine myeloma cells (SPO) and Chinese hamster ovary epithelium cells (CHO K1). As shown FIG. 4, even at high concentrations (1 mg/ml) M1 cytotoxicity on CHO K1 cells and on SPO cells is low (percent survival is 80-90%).\n(§4) For cytotoxicity tests, different cell lines were used: murine myeloma cells SPO, hamster ovary epithelium cells CHO K 1, murine macrophage cells J774 A.1 and human keratinocytes HaCaT. The cells were plated in medium in RPMI 1640 (SPO and CHO K 1) and DMEM (J774 A.1 and HaCaT) with antibiotics and bovine foetal serum at 10%, in 96-well plates at the concentration of 6×10^4 (SPO, CHO K1 and J774 A.1) and 3×10^4 (HaCaT). Peptides, previously filtered with a 0.2 μm filter disk (Whatman), were added at various concentrations to the different cell lines and left in incubation over night at 37° C. Cell viability was determined adding the MTT tetrazolium salt at the concentration of 0.5 mg/ml and incubating for 90 min. The cells were solubilised with a solution at pH 4.5 containing SDS 10% and dimethylformamide 45% and read at the dual wavelength of 595/650 nm with a plate reader."}, "[10]": {"test_system": "human keratinocytes HaCaT", "test": "Cytotoxicity test by MTT", "type": "cell-based", "settings": "up to 1 mg/ml", "protocol": "as §4"}, "[11]": {"test_system": "Pichia pastoris yeast strain X33", "test": "Effect on Pichia pastoris yeast colonies", "type": "cell-based", "settings": "Pichia pastoris X33, data not shown", "protocol": "To a volume of 50 μl of culture of Pichia pastoris grown 24 hour at 30° C. in YPD (Yeast Extract/Peptone/Dextrose) medium, 50 μl of MAP peptides (2 mg/ml) were added and left in incubation 150 min at 37° C. Subsequently, 50 μl of each incubation were plated on YPD solid medium and it was allowed to grow for 48 hours at 30° C. The number of colonies grown was compared with a control, where the yeast was not treated with the MAP."}, "human erythrocytes": {"test_system": "human erythrocytes", "test": "Haemolysis, Parpart erythrocyte osmotic resistance assay", "type": "cell-based", "settings": "19 hours incubation, 125 μg/ml", "protocol": "The haemolytic activity of M5 and M6 was also evaluated and is represented FIG. 9. Haemolysis of fresh human erythrocytes was determined at peptide concentrations ranging from 1 to 125 μg/ml. […] By contrast, after 19 hours of incubation, the haemolysis induced by M6 and M5 at 125 μg/ml is 7% and 19%, respectively. The percentage of haemolysis of untreated blood after 19 hours (control) is very limited (<1%).\nThe haemolytic activity of the KIRVRLSA [SEQ ID NO: 3] (M5) and […] [SEQ ID NO: 4] (M6) peptides was evaluated by the Parpart erythrocyte osmotic resistance assay in NaCl. The percentage of haemolysis was calculated by means of a calibration curve obtained incubating the erythrocytes with increasing concentrations of NaCl and measuring the absorbance increase, due to haemolysis, at 540 nm. 0.9% NaCl solutions containing the MAP peptides at different concentrations were then prepared, whereto was added human blood in the ratio of 1:100 (v/v). The samples were left at ambient temperature for 30 min and 19 hours; subsequently, a portion was drawn for each incubation, centrifuged at 1500 rpm for 5 min and the absorbance of the super was measured with the spectrophotometer at 540 nm."}}, "note": "Read-outs that look alike come from different tables or passages of the source. Positions of bridges follow the written chain, without caps; N, C: chain ends. Residues, ends and D or L forms follow the SMILES beside them. Chains are numbered I, II in the order given.", "data": [{"smiles": "CC[C@H](C)[C@H](NC(=O)[C@@H](N)CCCCN)C(=O)N[C@@H](CCCNC(=N)N)C(=O)N[C@H](C(=O)N[C@@H](CCCNC(=N)N)C(=O)N[C@@H](CC(C)C)C(=O)N[C@@H](CO)C(=O)N[C@@H](C)C(=O)NCCCC[C@H](NC(=O)[C@H](C)NC(=O)[C@H](CO)NC(=O)[C@H](CC(C)C)NC(=O)[C@H](CCCNC(=N)N)NC(=O)[C@@H](NC(=O)[C@H](CCCNC(=N)N)NC(=O)[C@@H](NC(=O)[C@@H](N)CCCCN)[C@@H](C)CC)C(C)C)C(=O)NCCCC[C@H](NC(=O)[C@H](CCCCNC(=O)[C@H](C)NC(=O)[C@H](CO)NC(=O)[C@H](CC(C)C)NC(=O)[C@H](CCCNC(=N)N)NC(=O)[C@@H](NC(=O)[C@H](CCCNC(=N)N)NC(=O)[C@@H](NC(=O)[C@@H](N)CCCCN)[C@@H](C)CC)C(C)C)NC(=O)[C@H](C)NC(=O)[C@H](CO)NC(=O)[C@H](CC(C)C)NC(=O)[C@H](CCCNC(=N)N)NC(=O)[C@@H](NC(=O)[C@H](CCCNC(=N)N)NC(=O)[C@@H](NC(=O)[C@@H](N)CCCCN)[C@@H](C)CC)C(C)C)C(=O)N[C@@H](C)C(=O)O)C(C)C", "note": "[M5, KIRVRLSA] (I: H-KIRVRLSAKKA-OH / II: H-KIRVRLSAK / III: H-KIRVRLSA / IV: H-KIRVRLSA; amide I:9-IV:C, I:10-II:C, II:9-III:C; N-terminus assumed)", "values": [{"measurement": "MIC (Molarity)", "setting": "[1]", "value": 3.8, "unit": "µM"}, {"measurement": "MIC (Molarity)", "setting": "[2]", "value": 31, "unit": "µM"}, {"measurement": "MIC (Molarity)", "setting": "[3]", "value": ">31", "unit": "µM"}, {"measurement": "MIC (Molarity)", "setting": "[4]", "value": 7.6, "unit": "µM"}, {"measurement": "MIC (Molarity)", "setting": "[5]", "value": 3.8, "unit": "µM"}, {"measurement": "MIC (Molarity)", "setting": "[6]", "value": 3.8, "unit": "µM"}, {"measurement": "MIC (Molarity)", "setting": "[7]", "value": "3.1e-05", "unit": "M"}, {"measurement": "MIC (Molarity)", "setting": "[7]; listed as KIRVRLSA", "value": "~10^−5 M"}, {"measurement": "MIC (Molarity)", "setting": "[8]", "value": 31, "unit": "µM"}, {"measurement": "Antibacterial activity on E. coli TG1 colony growth", "setting": "E. coli strain TG1", "value": "good antibacterial activity"}, {"measurement": "MBC (minimal concentration able to kill 99.9% of the inoculum) compared with MIC", "setting": "E. coli ATCC 25922", "value": "equal to the calculated values of MIC"}, {"measurement": "MBC (minimal concentration able to kill 99.9% of the inoculum) compared with MIC", "setting": "E. coli ATCC 25922; listed as KIRVRLSA", "value": "equal to the corresponding MIC values"}, {"measurement": "MBC (minimal concentration able to kill 99.9% of the inoculum) compared with MIC", "setting": "P. aeruginosa ATCC 27853", "value": "equal to the calculated values of MIC"}, {"measurement": "MBC (minimal concentration able to kill 99.9% of the inoculum) compared with MIC", "setting": "P. aeruginosa ATCC 27853; listed as KIRVRLSA", "value": "equal to the corresponding MIC values"}, {"measurement": "Effect on cell viability (MTT)", "setting": "[9]; J774.A1, overnight, 30 μg/ml", "value": "did not substantially affect cell viability"}, {"measurement": "Vitality of J774 A.1 cells as the concentration of MAP peptides increases (MTT)", "setting": "[9]; J774 A.1", "value": "decreases"}, {"measurement": "Toxicity for human keratinocyte HaCaT cells (MTT)", "setting": "[10]", "value": "low toxicity"}, {"measurement": "Toxicity for human keratinocyte HaCaT cells (MTT)", "setting": "[10]; listed as KIRVRLSA", "value": "particularly resistant"}, {"measurement": "Number of yeast colonies vs negative control", "setting": "[11]", "value": "did not differ from the negative control"}, {"measurement": "haemolysis of human erythrocytes", "setting": "human erythrocytes", "value": 19, "unit": "%"}]}]}
